According to the supplement of paper PMC10307832:

Tests used:
Test in all cases: relative viability (nuclei count vs DMSO), 5 days (fraction); higher = more cells survive
Seliciclib = compound: CC[C@H](CO)Nc1nc(NCc2ccccc2)c2ncn(C(C)C)c2n1 [Seliciclib]
How it was run: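 Viability was read as treated-well nuclei divided by vehicle-well nuclei, using the median across plates. Lung cancer cell lines in 1536-well plates were kept overnight at 37 °C, pinned with five √10-spaced library-drug doses, and after 5 days were Hoechst-stained, imaged at 4× and counted in MetaXpress. Plates passed only with control CV below 25% and at least one doubling.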

Seliciclib + Trametinib = compound: CC[C@H](CO)Nc1nc(NCc2ccccc2)c2ncn(C(C)C)c2n1 [Seliciclib] + CC(=O)Nc1cccc(-n2c(=O)n(C3CC3)c(=O)c3c(Nc4ccc(I)cc4F)n(C)c(=O)c(C)c32)c1 [Trametinib] (partner 0.02 µM)
How it was run: (§1)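 For relative viability, nuclei counts in treated wells were divided by those in vehicle wells. Lung cancer cell lines had been pin-tool dosed in 1536-well plates the day after seeding and cultured for 5 days, then fixed and stained in one step (final 0.05% Triton X-100, 1% formaldehyde, 1 ug/ml Hoechst) and imaged at 4×. Doses were one drug alone or a fixed anchor-drug dose plus five library-drug doses (not always all listed) in √10 steps, and values are duplicate-plate medians.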

Seliciclib + Phenformin = compound: CC[C@H](CO)Nc1nc(NCc2ccccc2)c2ncn(C(C)C)c2n1 [Seliciclib] + N=C(N)NC(=N)NCCc1ccccc1 [Phenformin] (partner 250 µM)
How it was run: as §1

Seliciclib + Olaparib = compound: CC[C@H](CO)Nc1nc(NCc2ccccc2)c2ncn(C(C)C)c2n1 [Seliciclib] + O=C(c1cc(Cc2n[nH]c(=O)c3ccccc23)ccc1F)N1CCN(C(=O)C2CC2)CC1 [Olaparib] (partner 8 µM)
How it was run: as §1

Row | Cell Line | relative viability (Seliciclib; 0.08 µM) | relative viability (Seliciclib; 0.253 µM) | relative viability (Seliciclib; 0.8 µM) | relative viability (Seliciclib; 2.53 µM) | relative viability (Seliciclib; 8 µM) | relative viability (Seliciclib + Trametinib; first compound 0.08 µM) | relative viability (Seliciclib + Trametinib; first compound 0.253 µM) | relative viability (Seliciclib + Trametinib; first compound 0.8 µM) | relative viability (Seliciclib + Trametinib; first compound 2.53 µM) | relative viability (Seliciclib + Trametinib; first compound 8 µM) | relative viability (Seliciclib + Phenformin; first compound 0.08 µM) | relative viability (Seliciclib + Phenformin; first compound 0.253 µM) | relative viability (Seliciclib + Phenformin; first compound 0.8 µM) | relative viability (Seliciclib + Phenformin; first compound 2.53 µM) | relative viability (Seliciclib + Phenformin; first compound 8 µM) | relative viability (Seliciclib + Olaparib; first compound 0.08 µM) | relative viability (Seliciclib + Olaparib; first compound 0.253 µM) | relative viability (Seliciclib + Olaparib; first compound 0.8 µM) | relative viability (Seliciclib + Olaparib; first compound 2.53 µM) | relative viability (Seliciclib + Olaparib; first compound 8 µM)
1 | LCLC-97TM1 | 0.984 | 1 | 0.911 | 0.473 | 0.651 | 0.244 | 0.173 | 0.226 | 0.178 | 0.155 | 0.467 | 0.354 | 0.493 | 0.138 | 0.381 | 0.453 | 0.47 | 0.322 | 0.381 | 0.265
2 | HARA | 0.927 | 1.08 | 1.01 | 0.945 | 0.844 | 0.675 | 0.719 | 0.565 | 0.828 | 0.44 | 0.424 | 0.423 | 0.469 | 0.47 | 0.393 | 1.05 | 0.66 | 0.784 | 0.909 | 0.924
3 | HCC-78 | 1 | 1.05 | 0.91 | 0.703 | 0.733 | 0.737 | 0.94 | 0.746 | 0.83 | 0.513 | 0.706 | 0.795 | 0.65 | 0.536 | 0.474 | 0.693 | 0.906 | 0.695 | 0.604 | 0.499
4 | NCI-H1666 | 0.955 | 1.13 | 1.01 | 0.866 | 0.829 | 0.829 | 0.761 | 0.792 | 0.849 | 0.75 | 0.59 | 0.589 | 0.556 | 0.549 | 0.516 | 0.737 | 0.82 | 0.725 | 0.752 | 0.604
5 | NCI-H2347 | 0.982 | 1.08 | 0.936 | 0.994 | 0.95 | 0.259 | 0.323 | 0.331 | 0.278 | 0.279 | 0.536 | 0.397 | 0.319 | 0.298 | 0.408 | 0.557 | 0.604 | 0.518 | 0.579 | 0.557
6 | NCI-H2342 | 0.967 | 0.74 | 0.947 | 0.842 | 0.905 | 0.705 | 0.598 | 0.865 | 0.752 | 0.887 | 0.606 | 0.54 | 0.533 | 0.496 | 0.521 | 0.417 | 0.394 | 0.347 | 0.429 | 0.453
7 | NCI-H838 | 0.945 | 0.956 | 0.944 | 0.926 | 0.805 | 0.516 | 0.485 | 0.523 | 0.449 | 0.451 | 0.59 | 0.559 | 0.561 | 0.461 | 0.329 | 0.729 | 0.765 | 0.762 | 0.773 | 0.635
8 | NCI-H2023 | 0.989 | 0.956 | 0.964 | 0.857 | 0.725 | 0.542 | 0.457 | 0.501 | 0.447 | 0.264 | 0.41 | 0.417 | 0.411 | 0.468 | 0.312 | 0.517 | 0.472 | 0.449 | 0.536 | 0.366
